Paper PMC4774911, “Biochemical Screening of Five Protein Kinases from Plasmodium falciparum against 14,000 Cell-Active Compounds” (PLoS ONE, 2016)

Legend:
[1] = target: T1, Plasmodium falciparum calcium-dependent protein kinase 1 (CDPK1) (Plasmodium falciparum, UniProt P62344); assay: CDPK1 Kinase-Glo ATP-consumption screen and dose-response; assay type: biochemical; conditions: hits below 1 uM; read-out: CDPK1 IC50
T1 construct: 6-Histidine (N); made in house
How it was run: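 Single-point testing used 1 μM final compound, then dose-response, against CDPK4 and CDPK1 with Syntide-2 (40 μM) as substrate. After 90 min, reactions were halted by 5 mM EGTA, and kinase activity was inferred from depleted ATP via Kinase-Glo luminescence.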

[2] = target: T2, Plasmodium falciparum calcium-dependent protein kinase 4 (CDPK4) (Plasmodium falciparum, UniProt Q8IBS5); assay: CDPK4 Kinase-Glo ATP-consumption screen and dose-response; assay type: biochemical; conditions: hits below 1 uM
T2 construct: 6-Histidine (N); made in house
T2 sequence (Q8IBS5 1-528): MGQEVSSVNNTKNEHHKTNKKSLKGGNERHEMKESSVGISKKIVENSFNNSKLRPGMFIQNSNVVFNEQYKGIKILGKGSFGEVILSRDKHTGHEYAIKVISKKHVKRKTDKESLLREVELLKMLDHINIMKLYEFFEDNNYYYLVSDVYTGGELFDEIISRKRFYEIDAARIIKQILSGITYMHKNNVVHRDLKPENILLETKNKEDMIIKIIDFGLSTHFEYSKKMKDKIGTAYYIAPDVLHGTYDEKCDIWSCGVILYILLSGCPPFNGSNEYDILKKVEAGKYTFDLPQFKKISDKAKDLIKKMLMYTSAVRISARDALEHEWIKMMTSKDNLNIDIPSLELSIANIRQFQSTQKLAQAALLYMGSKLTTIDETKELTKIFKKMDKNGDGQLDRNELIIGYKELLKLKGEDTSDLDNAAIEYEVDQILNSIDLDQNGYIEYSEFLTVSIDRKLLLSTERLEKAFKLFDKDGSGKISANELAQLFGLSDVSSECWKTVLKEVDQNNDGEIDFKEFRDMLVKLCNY
Method: Biochemical assays were performed in white 384-well plates (Nunc). Liquid transfers were done manually with 8-channel pipets. Compounds were initially tested in a single-point screen (final concentration 1 μM). […] The catalytic activity of each kinase was considered proportional to ATP consumed, as determined from measurements of residual [ATP] with the luciferase-based reagent Kinase-Glo (Promega) following incubation. Luminescence (proportional to residual [ATP]) was measured on the plate readers FLx800 (BioTek Instruments, Winooski, VT, USA) and MicroBeta^2 (PerkinElmer, Waltham, MA, USA). Incubation times were chosen to ensure near-complete ATP depletion in the absence of inhibition, thus maximizing the difference in signal between inhibited and uninhibited wells.
40 μM Syntide-2 was used as a substrate; BKI-1 [14] was used as a control inhibitor, while reaction mixtures lacking Syntide-2 were included as an additional negative control. Incubation time was 90 minutes. Reactions were terminated by adding excess EGTA (5 mM), which sequesters Ca^2+ and halts calcium-dependent kinase activity.

PKG = PKG (Plasmodium falciparum, UniProt Q8I719); assay: PKG IC50 (supplementary data file); assay type: biochemical
Chain of PKG (Q8I719 whole entry): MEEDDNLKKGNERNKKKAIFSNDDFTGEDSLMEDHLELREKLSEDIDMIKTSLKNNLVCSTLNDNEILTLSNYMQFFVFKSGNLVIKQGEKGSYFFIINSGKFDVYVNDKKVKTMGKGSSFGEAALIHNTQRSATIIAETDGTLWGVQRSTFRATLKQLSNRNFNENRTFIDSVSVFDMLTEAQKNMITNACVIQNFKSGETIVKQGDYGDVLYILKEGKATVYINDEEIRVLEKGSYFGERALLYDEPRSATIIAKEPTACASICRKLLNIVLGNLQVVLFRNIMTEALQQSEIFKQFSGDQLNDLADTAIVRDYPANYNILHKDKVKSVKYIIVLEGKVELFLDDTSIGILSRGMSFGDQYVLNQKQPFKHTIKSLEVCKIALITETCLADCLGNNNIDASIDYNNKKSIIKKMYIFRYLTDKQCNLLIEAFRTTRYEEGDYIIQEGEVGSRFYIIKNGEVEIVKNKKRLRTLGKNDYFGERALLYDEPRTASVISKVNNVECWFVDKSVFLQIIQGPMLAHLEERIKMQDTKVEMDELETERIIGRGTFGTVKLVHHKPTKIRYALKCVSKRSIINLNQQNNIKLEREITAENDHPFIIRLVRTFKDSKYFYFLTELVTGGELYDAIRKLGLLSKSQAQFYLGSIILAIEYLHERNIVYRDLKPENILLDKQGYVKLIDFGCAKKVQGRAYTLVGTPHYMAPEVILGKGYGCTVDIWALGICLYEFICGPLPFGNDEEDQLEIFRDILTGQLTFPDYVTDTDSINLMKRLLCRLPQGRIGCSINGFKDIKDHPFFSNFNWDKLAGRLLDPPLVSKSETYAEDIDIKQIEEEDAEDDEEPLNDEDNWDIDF
From the text: Supplement pone.0149996.s003.xls, sheet "combined_1_sorted"

HepG2 cells = conditions: HepG2; downloaded from ChEMBL; ref F.J. Gamo et al., Nature 2010; cited from earlier work
P. falciparum 3D7 cells = conditions: 3D7; downloaded from ChEMBL; ref F.J. Gamo et al., Nature 2010; cited from earlier work
DD2 = system: DD2; set-up: method as in F.J. Gamo et al., Nature 2010; conditions: downloaded from ChEMBL, ref F.J. Gamo et al., Nature 2010; cited from earlier work
3D7 PFLDH = system: 3D7 PFLDH; set-up: method as in F.J. Gamo et al., Nature 2010; concentration or dose not given beside the values; conditions: downloaded from ChEMBL, ref F.J. Gamo et al., Nature 2010; cited from earlier work

T1 sequence (P62344 whole entry): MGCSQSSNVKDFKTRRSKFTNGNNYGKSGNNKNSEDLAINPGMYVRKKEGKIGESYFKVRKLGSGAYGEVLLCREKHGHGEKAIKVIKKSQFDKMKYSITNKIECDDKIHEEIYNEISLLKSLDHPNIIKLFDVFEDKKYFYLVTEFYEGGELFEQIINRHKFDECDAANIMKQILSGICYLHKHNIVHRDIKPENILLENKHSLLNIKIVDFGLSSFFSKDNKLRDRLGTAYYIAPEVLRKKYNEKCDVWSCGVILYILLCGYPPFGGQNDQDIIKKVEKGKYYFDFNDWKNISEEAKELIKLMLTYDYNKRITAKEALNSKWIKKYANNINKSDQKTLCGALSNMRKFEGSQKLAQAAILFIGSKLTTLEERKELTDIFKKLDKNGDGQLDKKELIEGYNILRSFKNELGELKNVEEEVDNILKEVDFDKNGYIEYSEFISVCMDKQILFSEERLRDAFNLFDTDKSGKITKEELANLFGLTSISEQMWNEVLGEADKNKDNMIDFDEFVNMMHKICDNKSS

Row | Compound | IC50 [1] [nM] | IC50 [2] [nM] | IC50 (PKG) [nM] | PCT_INHIB_HEPG2 (HepG2 cells) [%] | PCT_IHB_3D7 (P. falciparum 3D7 cells) [%] | pXC50_3D7 (P. falciparum 3D7 cells) | PCT_INHB_DD2 (DD2) [%] | PCT_INHIB_3D7_PFLDH (3D7 PFLDH) [%]
1 | Cc1cccc(Nc2nc(N[C@@H]3CCCNC3)nc3cc[nH]c(=O)c23)c1.O=C(O)C(F)(F)F [TCMDC-134835] | 23 | 76 | 422 | 55 | 99 | 6.166 | 98 | 1
2 | Cc1cccc(Nc2nc(NCCCCN)nc3cc[nH]c(=O)c23)c1.O=C(O)C(F)(F)F [TCMDC-134946] | 566 | 166 | 1580 | 34 | 98 | 6.135 | 97 | 0
3 | O=C(O)C(F)(F)F.O=c1[nH]ccc2nc(N[C@@H]3CCNC3)nc(Nc3cc(Cl)cc(Cl)c3)c12 [TCMDC-135052] | 33 | 446 | 486 | 99 | 100 | 6.132 | 99 | 0
4 | NCCCNc1nc(Nc2cccc(C(N)=O)c2)c2c(=O)[nH]ccc2n1.O=C(O)C(F)(F)F [TCMDC-135053] | 750 | 967 | 7330 | 9 | 99 | 6.226 | 49 | 0
5 | NS(=O)(=O)c1cccc(Nc2nc(N[C@@H]3CCNC3)nc3cc[nH]c(=O)c23)c1.O=C(O)C(F)(F)F [TCMDC-135057] | 83 | 135 | 1850 | 7 | 99 | 6.027 | 98 | 0
6 | CCn1c(-c2nonc2N)nc2c(-c3cc4ccccc4s3)ncc(C(=O)N3CCC(N)C3)c21.O=C(O)C(F)(F)F (stereo not drawn) [TCMDC-135281] |  | 89 | 6940 | 99 | 98 | 6.06 | 66 | 5
7 | CCn1c(-c2nonc2N)nc2c(-c3ccccc3)ncc(OCCCNCCCN3CCOCC3)c21.O=C(O)C(F)(F)F [TCMDC-135858] | 42 | 38 | 126 | 28 | 100 | 6.174 | 91 | 0
8 | CCn1c(-c2nonc2N)nc2c(-c3cccc(Cl)c3)ncc(OCCCNCCc3c[nH]cn3)c21.O=C(O)C(F)(F)F [TCMDC-135919] | 138 | 46 | 2210 | 16 | 100 | 6.007 | 98 | 0
9 | CCn1c(-c2nonc2N)nc2c(-c3cccc(Cl)c3)ncc(OCCCNCc3cnc(C)nc3N)c21.O=C(O)C(F)(F)F [TCMDC-135956] | 271 | 145 | 9210 | 21 | 93 | 5.996 | 48 | 3
10 | CCn1c(-c2nonc2N)nc2c(-c3ccccc3)ncc(OCCCCNCCc3ncc[nH]3)c21.O=C(O)C(F)(F)F [TCMDC-136000] | 94 | 43 | 953 | 34 | 92 | 6.07 | 42 | 0
11 | CCn1c(-c2nonc2N)nc2c(-c3cccc(NC(=O)Nc4ccc(C(F)(F)F)cc4)c3)ncc(OCCCN)c21.O=C(O)C(F)(F)F [TCMDC-136179] | 959 | 30 | 264 | 36 | 94 | 5.981 | 63 | 6
12 | CCn1c(-c2nonc2N)nc2c(-c3cccc(NC(=O)Nc4ccc5c(c4)CCC5)c3)ncc(OCCCN)c21.O=C(O)C(F)(F)F [TCMDC-136191] | 85 | 59 | 5050 | 26 | 99 | 6.106 | 94 | 0
13 | CCn1c(-c2nonc2N)nc2c(-c3cccc(NC(=O)Nc4cccc(Cl)c4)c3)ncc(OCCCN)c21.O=C(O)C(F)(F)F [TCMDC-136193] | 379 | 81 | 926 | 9 | 91 | 6.027 | 78 | 0
14 | CCn1c(-c2nonc2N)nc2c(-c3cccc(NC(=O)Nc4ccc(C#N)cc4)c3)ncc(OCCCN)c21.O=C(O)C(F)(F)F [TCMDC-136194] | 235 | 84 | 595 | 1 | 85 | 5.821 | 80 | 0
15 | CCn1c(-c2nonc2N)nc2c(-c3cccc(NC(=O)Nc4cccc(C#N)c4)c3)ncc(OCCCN)c21.O=C(O)C(F)(F)F [TCMDC-136195] | 182 | 170 | 158 | 37 | 92 | 6.1747 | 80 | 0
16 | CCn1c(-c2nonc2N)nc2c(-c3cccc(NC(=O)NC45CC6CC(CC(C6)C4)C5)c3)ncc(OCCCN)c21.O=C(O)C(F)(F)F [TCMDC-136246] | 84 | 158 | 89 | 100 | 94 |  | 63 | 0
